Experiments:
Mus musculus = species on record: Mus musculus; assay: animal or person
Description: Antinociceptive activity in naloxone treated mouse assessed as induction of Straub-tail response

Acetylcholinesterase = Acetylcholinesterase (Homo sapiens, UniProt P22303); assay: Inhibition of acetylcholinesterase (unknown origin) using acetylthiocholine iodide as substrate incubated for 30 mins by Ellman's coupled enzyme assay
[1] = molecular target: T1, Neuronal acetylcholine receptor; alpha4/beta2 (Homo sapiens, UniProt P17787+P43681)
Description: Displacement of [3H]cytisine from human alpha4beta2 nAChR by radioligand competition analysis

[2] = molecular target: T1, Neuronal acetylcholine receptor; alpha4/beta2; remark: listed apart in the source
Description: Displacement of [3H]cytisine from human alpha4beta2 nAChR by Cheng-Prusoff equation analysis

[3] = molecular target: Acetylcholinesterase (Electrophorus electricus) (UniProt O42275); assay: Inhibition of electric eel acetylcholinesterase using acetylthiocholine iodide as substrate by Ellman's method relative to control; settings: concentration not given here
[4] = molecular target: T2, Muscarinic acetylcholine receptor M1 (Rattus norvegicus) (UniProt P08482); settings: filed as antagonist, time 60.0 min
T2 sequence (whole entry): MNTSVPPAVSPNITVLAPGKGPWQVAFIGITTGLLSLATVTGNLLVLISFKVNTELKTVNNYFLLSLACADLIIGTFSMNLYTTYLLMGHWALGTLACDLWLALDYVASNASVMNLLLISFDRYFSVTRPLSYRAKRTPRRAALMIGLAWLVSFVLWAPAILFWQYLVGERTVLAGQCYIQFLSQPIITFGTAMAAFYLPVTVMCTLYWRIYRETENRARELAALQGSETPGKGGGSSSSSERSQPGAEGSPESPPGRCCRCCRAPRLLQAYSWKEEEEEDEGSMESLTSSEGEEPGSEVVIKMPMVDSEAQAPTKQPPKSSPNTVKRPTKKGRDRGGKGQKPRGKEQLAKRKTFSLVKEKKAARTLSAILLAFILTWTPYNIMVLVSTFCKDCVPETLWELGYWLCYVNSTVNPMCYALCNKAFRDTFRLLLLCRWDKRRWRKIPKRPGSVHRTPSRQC

[5] = molecular target: T2, Muscarinic acetylcholine receptor M1 (Rattus norvegicus); settings: filed as antagonist, time 40.0 min
[6] = molecular target: T1, Neuronal acetylcholine receptor; alpha4/beta2; assay: Agonist activity at human alpha4beta2 nAChR expressed in Xenopus oocytes relative to control; assay type: cell-based; settings: Oocyte, filed as agonist
[7] = molecular target: Neuronal acetylcholine receptor; alpha4/beta2 (Rattus norvegicus, UniProt P09483+P12390); assay: Displacement of [3H]-cytisine from rat brain membrane alpha4beta2 nAChR; assay type: cell membranes
[8] = molecular target: T1, Neuronal acetylcholine receptor; alpha4/beta2; assay: Agonist activity at human alpha4beta2 nAChR expressed in Xenopus oocytes; assay type: cell-based, Oocyte
Rattus norvegicus = species on record: Rattus norvegicus; assay: Agonist activity at nAChR in rat striatal synaptosomes assessed as [3H]dopamine release relative to tetramethylammonium; assay type: subcellular; settings: Striatum, filed as agonist
[9] = molecular target: T3, Muscarinic acetylcholine receptor M2 (Rattus norvegicus, UniProt P10980); assay: Inhibition of [3H]-methyl-quinuclidinyl benzilate binding to rat heart muscarinic M2 receptor by radioligand binding assay
T3 sequence (P10980 whole entry): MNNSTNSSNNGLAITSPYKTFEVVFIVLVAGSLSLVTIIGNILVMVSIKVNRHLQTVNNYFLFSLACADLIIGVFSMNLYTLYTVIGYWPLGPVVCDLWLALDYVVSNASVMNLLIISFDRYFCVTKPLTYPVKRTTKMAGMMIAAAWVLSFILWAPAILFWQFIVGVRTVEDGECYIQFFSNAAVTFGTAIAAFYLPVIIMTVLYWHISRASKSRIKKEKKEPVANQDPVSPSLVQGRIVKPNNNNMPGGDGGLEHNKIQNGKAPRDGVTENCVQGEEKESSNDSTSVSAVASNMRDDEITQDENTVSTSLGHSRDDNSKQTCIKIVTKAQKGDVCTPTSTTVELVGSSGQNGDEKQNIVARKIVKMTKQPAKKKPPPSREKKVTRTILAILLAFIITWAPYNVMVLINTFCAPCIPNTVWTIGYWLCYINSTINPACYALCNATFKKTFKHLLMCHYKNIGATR

[10] = molecular target: Muscarinic acetylcholine receptor M3 (Rattus norvegicus, UniProt P08483); assay: Inhibition of [3H]-methyl-quinuclidinyl benzilate binding to rat salivary gland muscarinic M3 receptor by radioligand binding assay
[11] = molecular target: T4, Muscarinic acetylcholine receptor M1 (Rattus norvegicus, UniProt P08482); assay: Inhibition of [3H]-methyl-quinuclidinyl benzilate binding to rat brain muscarinic M1 receptor by radioligand binding assay
T4 sequence (P08482 whole entry): T2 sequence (whole entry)

[12] = Toxicity in iv dosed Swiss-Webster mouse by up-and-down method; assay type: organism-based; settings: in vivo
[13] = molecular target: T5, Neuronal acetylcholine receptor subunit alpha-7 (Rattus norvegicus, UniProt Q05941); assay: Displacement of 125I-alpha-bungarotoxin from rat brain alpha7 nAChR by radioligand binding assay
[14] = Neurotoxicity in ip dosed mouse assessed as induction of hindlimb tonic extension; assay type: toxicity, organism-based; settings: in vivo
[15] = Neurotoxicity in ip dosed mouse assessed as induction of epileptic convulsion; assay type: toxicity, organism-based; settings: in vivo
[16] = Neurotoxicity in ip dosed mouse assessed as mouse death; assay type: toxicity, organism-based; settings: in vivo
[17] = molecular target: T1, Neuronal acetylcholine receptor; alpha4/beta2; assay: Agonist activity at human brain alpha4beta2 nAChR expressed in Xenopus laevis oocytes assessed as peak response relative to acetylcholine response; assay type: cell-based; settings: Oocyte
[18] = molecular target: T6, Dopamine beta-hydroxylase (Bos taurus) (UniProt P15101); assay: Inhibition of bovine adrenal medulla DBH at 0.5 uM relative to control
T6 sequence (whole entry): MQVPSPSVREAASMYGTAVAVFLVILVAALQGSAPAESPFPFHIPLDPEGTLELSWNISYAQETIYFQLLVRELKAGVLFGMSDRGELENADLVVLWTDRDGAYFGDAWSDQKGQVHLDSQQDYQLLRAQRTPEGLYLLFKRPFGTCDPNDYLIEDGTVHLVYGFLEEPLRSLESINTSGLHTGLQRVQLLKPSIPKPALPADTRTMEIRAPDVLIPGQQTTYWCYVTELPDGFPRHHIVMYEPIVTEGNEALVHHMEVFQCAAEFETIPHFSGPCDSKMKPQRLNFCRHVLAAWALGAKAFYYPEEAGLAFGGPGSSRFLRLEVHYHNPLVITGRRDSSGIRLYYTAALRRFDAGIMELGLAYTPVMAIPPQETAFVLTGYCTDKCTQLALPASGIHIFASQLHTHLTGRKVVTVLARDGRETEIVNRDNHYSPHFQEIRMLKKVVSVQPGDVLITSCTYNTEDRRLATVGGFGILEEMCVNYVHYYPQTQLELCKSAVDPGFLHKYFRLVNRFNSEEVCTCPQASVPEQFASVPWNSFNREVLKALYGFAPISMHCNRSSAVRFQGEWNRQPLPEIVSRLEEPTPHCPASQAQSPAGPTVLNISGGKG

[19] = molecular target: T6, Dopamine beta-hydroxylase (Bos taurus); assay: Inhibition of bovine adrenal medulla DBH at 5 uM relative to control
[20] = molecular target: T5, Neuronal acetylcholine receptor subunit alpha-7
Description: Displacement of [3H]MLA from rat alpha7 nAChR by liquid scintillation counting

Chain of Acetylcholinesterase (P22303 whole entry): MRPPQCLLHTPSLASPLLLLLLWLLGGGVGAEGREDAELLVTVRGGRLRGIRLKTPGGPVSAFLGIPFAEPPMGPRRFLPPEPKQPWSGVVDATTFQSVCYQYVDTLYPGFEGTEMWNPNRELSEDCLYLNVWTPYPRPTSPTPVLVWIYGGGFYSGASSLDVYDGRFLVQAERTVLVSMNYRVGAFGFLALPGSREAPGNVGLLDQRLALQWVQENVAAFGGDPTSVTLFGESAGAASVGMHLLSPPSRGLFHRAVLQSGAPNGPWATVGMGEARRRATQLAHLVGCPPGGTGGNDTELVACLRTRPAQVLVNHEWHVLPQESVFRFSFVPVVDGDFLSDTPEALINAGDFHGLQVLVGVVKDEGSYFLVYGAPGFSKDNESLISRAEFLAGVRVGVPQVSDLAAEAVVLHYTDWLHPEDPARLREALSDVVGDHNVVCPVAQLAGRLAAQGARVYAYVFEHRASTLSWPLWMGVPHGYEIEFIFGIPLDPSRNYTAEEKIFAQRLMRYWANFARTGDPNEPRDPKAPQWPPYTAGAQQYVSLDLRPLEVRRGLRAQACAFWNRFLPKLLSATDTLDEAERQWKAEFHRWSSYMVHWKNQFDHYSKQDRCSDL
T1 sequence (P17787 whole entry): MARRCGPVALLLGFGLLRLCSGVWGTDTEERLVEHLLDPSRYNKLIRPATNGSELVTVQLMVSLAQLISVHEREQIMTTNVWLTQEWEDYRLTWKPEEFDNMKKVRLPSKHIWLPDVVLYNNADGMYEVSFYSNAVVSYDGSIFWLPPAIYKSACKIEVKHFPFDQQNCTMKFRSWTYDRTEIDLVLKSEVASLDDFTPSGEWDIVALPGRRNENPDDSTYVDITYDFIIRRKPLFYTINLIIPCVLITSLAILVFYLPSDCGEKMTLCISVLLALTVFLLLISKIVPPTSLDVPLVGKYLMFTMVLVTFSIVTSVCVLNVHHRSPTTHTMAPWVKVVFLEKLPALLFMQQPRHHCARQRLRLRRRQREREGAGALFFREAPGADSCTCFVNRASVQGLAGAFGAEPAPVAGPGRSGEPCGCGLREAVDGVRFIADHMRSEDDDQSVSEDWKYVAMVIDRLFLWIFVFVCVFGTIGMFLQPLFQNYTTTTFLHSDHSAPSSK
T1 sequence (P43681 whole entry): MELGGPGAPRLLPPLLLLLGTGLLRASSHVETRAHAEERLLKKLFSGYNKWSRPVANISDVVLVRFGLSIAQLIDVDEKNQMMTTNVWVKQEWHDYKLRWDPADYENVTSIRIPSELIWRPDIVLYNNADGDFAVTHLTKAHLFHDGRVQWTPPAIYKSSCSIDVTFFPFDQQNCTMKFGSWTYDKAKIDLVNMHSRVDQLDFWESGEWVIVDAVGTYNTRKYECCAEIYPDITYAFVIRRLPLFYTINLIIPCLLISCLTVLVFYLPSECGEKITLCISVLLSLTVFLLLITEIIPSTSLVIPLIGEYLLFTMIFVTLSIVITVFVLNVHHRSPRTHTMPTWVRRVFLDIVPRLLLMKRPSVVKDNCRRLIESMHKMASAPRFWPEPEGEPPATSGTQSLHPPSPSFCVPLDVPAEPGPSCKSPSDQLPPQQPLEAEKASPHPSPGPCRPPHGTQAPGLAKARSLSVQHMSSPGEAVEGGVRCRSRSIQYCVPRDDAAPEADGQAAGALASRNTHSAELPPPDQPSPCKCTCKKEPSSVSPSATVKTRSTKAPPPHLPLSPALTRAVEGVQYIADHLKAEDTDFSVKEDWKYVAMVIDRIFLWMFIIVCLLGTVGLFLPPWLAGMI
Chain of Muscarinic acetylcholine receptor M3 (P08483 whole entry): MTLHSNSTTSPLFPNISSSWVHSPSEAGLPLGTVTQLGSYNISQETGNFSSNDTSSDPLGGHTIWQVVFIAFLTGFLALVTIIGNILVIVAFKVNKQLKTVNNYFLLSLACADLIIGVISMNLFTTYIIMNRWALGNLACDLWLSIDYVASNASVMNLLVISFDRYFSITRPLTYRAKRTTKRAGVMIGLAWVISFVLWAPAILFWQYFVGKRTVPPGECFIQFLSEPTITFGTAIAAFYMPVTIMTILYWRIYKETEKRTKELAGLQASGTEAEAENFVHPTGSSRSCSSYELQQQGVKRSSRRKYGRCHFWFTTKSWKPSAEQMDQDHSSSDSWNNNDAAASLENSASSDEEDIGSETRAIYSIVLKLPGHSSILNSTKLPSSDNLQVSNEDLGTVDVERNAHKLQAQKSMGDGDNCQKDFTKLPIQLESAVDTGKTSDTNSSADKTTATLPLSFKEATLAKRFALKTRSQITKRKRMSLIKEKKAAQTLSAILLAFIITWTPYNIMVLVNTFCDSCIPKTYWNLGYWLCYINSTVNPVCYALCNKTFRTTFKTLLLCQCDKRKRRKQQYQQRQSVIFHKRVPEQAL
T5 sequence (Q05941 whole entry): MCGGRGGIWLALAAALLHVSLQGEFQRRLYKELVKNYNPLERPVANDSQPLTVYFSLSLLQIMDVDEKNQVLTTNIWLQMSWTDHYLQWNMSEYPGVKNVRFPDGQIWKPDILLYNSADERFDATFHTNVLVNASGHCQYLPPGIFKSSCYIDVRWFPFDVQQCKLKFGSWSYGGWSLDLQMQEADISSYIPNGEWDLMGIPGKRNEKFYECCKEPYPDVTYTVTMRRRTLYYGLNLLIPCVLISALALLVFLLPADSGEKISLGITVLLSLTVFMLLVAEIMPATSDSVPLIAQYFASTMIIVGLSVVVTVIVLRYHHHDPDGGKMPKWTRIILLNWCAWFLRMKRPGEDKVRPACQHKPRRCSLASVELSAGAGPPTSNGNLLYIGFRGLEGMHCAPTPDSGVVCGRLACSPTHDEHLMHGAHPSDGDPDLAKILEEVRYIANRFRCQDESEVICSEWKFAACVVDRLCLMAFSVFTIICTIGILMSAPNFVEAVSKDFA
Chain of Acetylcholinesterase (Electrophorus electricus) (O42275 24-633 limits assumed): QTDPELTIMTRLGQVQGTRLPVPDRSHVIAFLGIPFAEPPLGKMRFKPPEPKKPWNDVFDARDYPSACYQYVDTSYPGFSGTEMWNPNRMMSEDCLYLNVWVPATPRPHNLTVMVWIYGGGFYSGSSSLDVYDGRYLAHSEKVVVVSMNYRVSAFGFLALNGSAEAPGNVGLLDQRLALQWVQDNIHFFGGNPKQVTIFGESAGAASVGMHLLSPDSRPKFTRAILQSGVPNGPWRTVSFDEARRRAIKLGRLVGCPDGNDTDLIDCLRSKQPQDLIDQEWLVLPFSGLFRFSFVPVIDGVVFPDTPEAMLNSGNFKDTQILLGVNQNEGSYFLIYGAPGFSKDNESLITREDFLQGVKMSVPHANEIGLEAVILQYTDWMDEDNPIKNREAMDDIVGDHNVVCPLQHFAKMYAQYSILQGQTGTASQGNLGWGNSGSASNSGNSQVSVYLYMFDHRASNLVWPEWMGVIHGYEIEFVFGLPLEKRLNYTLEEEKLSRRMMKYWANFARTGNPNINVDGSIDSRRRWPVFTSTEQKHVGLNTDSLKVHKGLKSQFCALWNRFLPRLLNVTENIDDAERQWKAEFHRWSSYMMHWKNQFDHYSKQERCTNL
Chain of Neuronal acetylcholine receptor; alpha4/beta2 (Rattus norvegicus, UniProt P09483+P12390) (P09483 whole entry): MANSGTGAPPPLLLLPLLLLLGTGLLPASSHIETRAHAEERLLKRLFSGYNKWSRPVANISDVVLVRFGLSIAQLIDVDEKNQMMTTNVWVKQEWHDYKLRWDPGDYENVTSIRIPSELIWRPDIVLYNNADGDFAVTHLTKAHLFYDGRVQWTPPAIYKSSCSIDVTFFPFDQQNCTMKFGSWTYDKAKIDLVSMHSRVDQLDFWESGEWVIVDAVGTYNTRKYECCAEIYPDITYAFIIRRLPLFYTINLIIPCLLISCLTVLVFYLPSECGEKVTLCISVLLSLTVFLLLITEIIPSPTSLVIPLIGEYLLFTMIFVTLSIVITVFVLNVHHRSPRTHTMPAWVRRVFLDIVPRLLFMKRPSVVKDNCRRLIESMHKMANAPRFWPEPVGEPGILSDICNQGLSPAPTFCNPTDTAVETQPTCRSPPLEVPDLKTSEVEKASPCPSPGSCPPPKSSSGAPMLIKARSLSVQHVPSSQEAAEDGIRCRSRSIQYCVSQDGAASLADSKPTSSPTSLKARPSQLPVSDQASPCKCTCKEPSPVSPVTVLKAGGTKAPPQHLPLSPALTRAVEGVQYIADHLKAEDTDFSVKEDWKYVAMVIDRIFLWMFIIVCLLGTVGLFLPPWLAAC
Chain of Neuronal acetylcholine receptor; alpha4/beta2 (Rattus norvegicus, UniProt P09483+P12390) (P12390 whole entry): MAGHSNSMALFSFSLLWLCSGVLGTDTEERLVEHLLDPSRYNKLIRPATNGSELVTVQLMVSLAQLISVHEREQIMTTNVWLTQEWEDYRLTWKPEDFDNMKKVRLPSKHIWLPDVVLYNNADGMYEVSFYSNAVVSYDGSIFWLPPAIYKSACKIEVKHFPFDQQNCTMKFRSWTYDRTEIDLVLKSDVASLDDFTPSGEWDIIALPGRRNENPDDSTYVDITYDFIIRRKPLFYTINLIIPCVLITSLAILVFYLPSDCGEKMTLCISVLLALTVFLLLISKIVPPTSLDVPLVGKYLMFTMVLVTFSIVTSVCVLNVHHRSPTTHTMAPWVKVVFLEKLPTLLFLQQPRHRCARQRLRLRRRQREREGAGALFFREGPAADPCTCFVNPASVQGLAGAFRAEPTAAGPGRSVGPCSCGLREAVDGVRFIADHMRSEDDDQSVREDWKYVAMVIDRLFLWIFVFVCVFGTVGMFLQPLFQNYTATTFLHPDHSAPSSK

CN1CC[C@]23c4c5ccc(O)c4O[C@H]2[C@@H](O)C=C[C@H]3[C@H]1C5 [MORPHINE]
ED50 (Mus musculus): 10 mg/kg

CO[C@]1(c2cn(O)c(=O)c(C(=O)[C@H]3[C@@H]4CC[C@@H](C)C[C@H]4C=C[C@H]3C)c2O)CC[C@@H](O)[C@H]2O[C@H]21
IC50 (Acetylcholinesterase): 0.81 µM

C[C@@H]1CC2NCC3c4cccc(=O)n4CC2C31 (some centres undefined)
IC50 [1]: 0.0048 µM | Ki [2]: 0.0016 µM

O=C(O)[C@H]1CCCC[C@@H]1c1c[nH]c(=O)cc1O
inhibition [3]: 57.5%

Clc1ccc(C2CC3CCC2N3)cn1 (stereo in doubt; (-))
Kapp [4]: 16 µM | Kapp [5]: 1.4 µM

C1=C[C@@H](c2cccnc2)NCC1
Imax [6]: 78.7% | Ki [7]: 0.108 µM | EC50 [8]: 1.01 µM

Cc1cc([C@@H]2CCCN2C)on1
Emax (Rattus norvegicus): 91%

CN1CC2c3cccc(=O)n3CC3C2[C@H](CO)CC31 (some centres undefined)
IC50 [1]: 0.0039 µM | Ki [2]: 0.0013 µM

c1cc2c[n+](c1)CCCCCCCCCCCCCCc1ccc[n+](c1)CCCCCCCCCCCCC2
IC50 [9]: 175 µM | IC50 [10]: 338 µM | IC50 [11]: 279 µM

C[C@@H]1CC[C@H]2[C@H](C(=O)c3c4c(cn(O)c3=O)[C@@]3(O)CC[C@H](O)[C@H](O4)[C@@H]3O)[C@H](C)C=C[C@@H]2C1
IC50 (Acetylcholinesterase): 47 µM

c1cncc([C@H]2CCCCN2)c1
LD50 [12]: 11 mg/kg | Ki [13]: 3.7 µM

O=C(O)C[C@@H]1[C@@H](C(=O)O)NC[C@@H]1c1ccc(=O)[nH]c1
LD [14]: 10 mg/kg | LD [15]: 10 mg/kg | LD [16]: 10 mg/kg

c1cc2c[n+](c1)CCCCCCCCCCCCCCc1ccc[n+](c1)CCCCCCCCCCCCCC2
IC50 [9]: 194 µM | IC50 [10]: 612 µM | IC50 [11]: 470 µM

c1cc2c[n+](c1)CCCCCCCCCCCCCc1ccc[n+](c1)CCCCCCCCCCCCC2
IC50 [9]: 72.3 µM | IC50 [10]: 193 µM | IC50 [11]: 162 µM

C1=CC[C@H](c2cccnc2)NC1
Imax [17]: 25%

O=C(O)c1ccccn1
inhibition [18]: 55% | inhibition [19]: 83%

C[C@@H]1CC[C@H]2[C@H](C(=O)c3c(O)c([C@@]4(O)CC[C@@H](O)[C@H]5O[C@H]54)cn(O)c3=O)[C@H](C)C=C[C@@H]2C1
IC50 (Acetylcholinesterase): 39 µM

O=c1cccc2n1C[C@@H]1CNC[C@H]2C1 [CYTISINICLINE]
Ki [2]: 0.00028 µM | Ki [20]: 1.7 µM
